Laboratory results published in patent publication US20200209247A1, “METHODS FOR IDENTIFYING MYELOMA TUMOR-INITIATING CELLS AND TARGETED THERAPY” (UNIVERSITY OF IOWA RESEARCH FOUNDATION, priority 2017, published 2020).

System: RPMI-8226, RPMI-8226-R5 (a drug resistant cell line) cells
Assay type: cell-based, human
Settings: treated in vitro for 72 h; RT-PCR
Protocol: Drug resistance is a critical characteristic of TICs^43. To examine whether CD24^+ cells show higher resistance to chemotherapeutic drugs, the soft agar clonogenic formation assay was employed to examine the response to multiple drugs. […] The ARP1 cells from the 1st passage were collected and re-plated in methylcellulose dishes. CD24^+ and CD24^− ARP1 MM cells in the 2nd passage were treated with bortezomib (2 and 10 nM) or carfilzomib (2.5 and 12.5 nM) or melphalan (2.5 and 12.5 μM) for 2 weeks. CD24^+ ARP1 (FIGS. 5A & 5B) or OCI-MY5 (FIGS. 5C & 5D) MM cells were more pronounced resistant (>2.5-fold) than CD24^− ARP1 or OCI-MY5 MM cells. To directly confirm whether CD24^+ population are enriched upon chemotherapy, we treated RPMI-8226, RPMI-8226-R5 (a drug resistant cell line) cells with bortezmib or melphalan in vitro for 72 h (data not shown).

SMILES: N[C@@H](Cc1ccc(N(CCCl)CCCl)cc1)C(=O)O [melphalan]
- expression of CD24 in survival cells compared to untreated MM cells: upregulated

SMILES: CC(C)C[C@H](NC(=O)[C@H](Cc1ccccc1)NC(=O)c1cnccn1)B(O)O [bortezomib]
- expression of CD24 in survival cells compared to untreated MM cells: upregulated
